# Measurements as given in PubChem BioAssay (NCI).
#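 Cells were grown in 96-well plates and exposed to each compound for 48 hours at five concentrations; endpoints were interpolated linearly between bracketing concentrations, or set to the highest concentration if not reached. TGI denotes the concentration required for complete inhibition of growth.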
# Columns and labels:
# Assay in all cases: NCI-60 cell line screen, 48 h
# [1] = tested on: KM20L2 colon
# [2] = tested on: MALME-3M melanoma
# [3] = tested on: TK-10 renal
# [4] = tested on: IGROV1 ovarian
# [5] = tested on: SN12C renal
# [6] = tested on: A498 renal
# [7] = tested on: A549 NSCLC
# [8] = tested on: COLO 205 colon
# [9] = tested on: SW-620 colon
# [10] = tested on: UACC-257 melanoma
# [11] = tested on: NCI-H23 lung
# [12] = tested on: UACC-62 melanoma
# [13] = tested on: SK-MEL-28 melanoma
# [14] = tested on: OVCAR-4 ovarian
# [15] = tested on: OVCAR-5 ovarian
# [16] = tested on: NCI-H226 lung
# [17] = tested on: MOLT-4 leukemia
# [18] = tested on: K-562 leukemia
# [19] = tested on: SF-295 CNS
# [20] = tested on: DMS 114 small cell lung
# [21] = tested on: HOP-62 NSCLC
# [22] = tested on: SNB-19 CNS
# [23] = tested on: M14 melanoma
# [24] = tested on: SF-268 CNS
# [25] = tested on: RPMI-8226 leukemia
# [26] = tested on: HCT-116 colon
# [27] = tested on: NCI-H460 lung
# [28] = tested on: U251 CNS
# [29] = tested on: HL-60(TB) leukemia
# [30] = tested on: CCRF-CEM leukemia
# [31] = tested on: OVCAR-8 ovarian
# [32] = tested on: KM12 colon
# [33] = tested on: EKVX NSCLC
# [34] = tested on: ACHN renal
# [35] = tested on: M19-MEL melanoma
# [36] = tested on: SNB-78 CNS
# [37] = tested on: DLD-1 colon
# [38] = tested on: SK-MEL-5 melanoma
# [39] = tested on: HT29 colon
# [40] = tested on: SR leukemia
# [41] = tested on: 786-0 renal
# [42] = tested on: SF-539 CNS
# [43] = tested on: HOP-92 NSCLC
# [44] = tested on: SK-MEL-2 melanoma
# [45] = tested on: SNB-75 CNS
# [46] = tested on: HCC-2998 colon
# [47] = tested on: OVCAR-3 ovarian
# [48] = tested on: LXFL 529 NSCLC
# [49] = tested on: UO-31 renal
# [50] = tested on: NCI-H522 lung
# [51] = tested on: CAKI-1 renal
# [52] = tested on: HOP-18 NSCLC
# [53] = tested on: SK-OV-3 ovarian
# [54] = tested on: RXF 393 renal
# [55] = tested on: HCT-15 colon
# [56] = tested on: DMS 273 small cell lung
# [57] = tested on: LOX IMVI melanoma
# [58] = tested on: XF 498 CNS
compound,measurement,setting,value
C[C@@H](O)CCC(=O)c1ccoc1,TGI,[1],> 100 µM
same,TGI,[2],> 100 µM
same,TGI,[3],> 100 µM
same,TGI,[4],> 100 µM
same,TGI,[5],> 100 µM
same,TGI,[6],> 100 µM
same,TGI,[7],> 100 µM
same,TGI,[8],> 100 µM
same,TGI,[9],> 100 µM
same,TGI,[10],> 100 µM
same,TGI,[11],> 100 µM
same,TGI,[12],> 100 µM
same,TGI,[13],> 100 µM
same,TGI,[14],> 100 µM
same,TGI,[15],> 100 µM
same,TGI,[16],> 100 µM
same,TGI,[17],> 100 µM
same,TGI,[18],> 100 µM
same,TGI,[19],> 100 µM
same,TGI,[20],> 100 µM
same,TGI,[21],> 100 µM
same,TGI,[22],> 100 µM
same,TGI,[23],> 100 µM
same,TGI,[24],> 100 µM
same,TGI,[25],> 100 µM
same,TGI,[26],> 100 µM
same,TGI,[27],> 100 µM
same,TGI,[28],> 100 µM
same,TGI,[29],> 100 µM
same,TGI,[30],> 100 µM
same,TGI,[31],> 100 µM
same,TGI,[32],> 100 µM
same,TGI,[33],> 100 µM
same,TGI,[34],> 100 µM
same,TGI,[35],> 100 µM
same,TGI,[36],> 100 µM
same,TGI,[37],> 100 µM
same,TGI,[38],> 100 µM
same,TGI,[39],> 100 µM
same,TGI,[40],> 100 µM
same,TGI,[41],> 100 µM
same,TGI,[42],> 100 µM
same,TGI,[43],> 100 µM
same,TGI,[44],> 100 µM
same,TGI,[45],> 100 µM
same,TGI,[46],> 100 µM
same,TGI,[47],> 100 µM
same,TGI,[48],> 100 µM
same,TGI,[49],> 100 µM
same,TGI,[50],> 100 µM
same,TGI,[51],> 100 µM
same,TGI,[52],> 100 µM
same,TGI,[53],> 100 µM
same,TGI,[54],> 100 µM
same,TGI,[55],> 100 µM
same,TGI,[56],> 100 µM
same,TGI,[57],> 100 µM
O=C1OCCC1(Cc1ccc(Cl)cc1)Cc1ccc(Cl)cc1,TGI,[2],> 100 µM
same,TGI,[3],> 100 µM
same,TGI,[4],> 100 µM
same,TGI,[5],> 100 µM
same,TGI,[6],> 100 µM
same,TGI,[7],> 100 µM
same,TGI,[8],> 100 µM
same,TGI,[9],> 100 µM
same,TGI,[10],> 100 µM
same,TGI,[11],> 100 µM
same,TGI,[12],> 100 µM
same,TGI,[13],> 100 µM
same,TGI,[14],> 100 µM
same,TGI,[15],> 100 µM
same,TGI,[16],> 100 µM
same,TGI,[58],43.3 µM
same,TGI,[17],> 100 µM
same,TGI,[18],> 100 µM
same,TGI,[19],> 100 µM
same,TGI,[21],89.2 µM
same,TGI,[22],> 100 µM
same,TGI,[23],> 100 µM
same,TGI,[24],> 100 µM
same,TGI,[25],> 100 µM
same,TGI,[26],> 100 µM
same,TGI,[27],> 100 µM
same,TGI,[28],> 100 µM
same,TGI,[29],> 100 µM
same,TGI,[30],> 100 µM
same,TGI,[31],> 100 µM
same,TGI,[32],> 100 µM
same,TGI,[33],> 100 µM
same,TGI,[34],> 100 µM
same,TGI,[35],> 100 µM
same,TGI,[36],> 100 µM
same,TGI,[37],> 100 µM
same,TGI,[39],> 100 µM
same,TGI,[40],> 100 µM
same,TGI,[41],> 100 µM
same,TGI,[43],96.3 µM
same,TGI,[44],> 100 µM
same,TGI,[45],56.5 µM
same,TGI,[47],> 100 µM
same,TGI,[48],> 100 µM
same,TGI,[49],> 100 µM
same,TGI,[50],> 100 µM
same,TGI,[51],> 100 µM
same,TGI,[53],> 100 µM
O=S(O)CCCCCSSSCCCCCS(=O)O,TGI,[1],> 100 µM
same,TGI,[2],94 µM
same,TGI,[3],93.8 µM
same,TGI,[5],> 100 µM
same,TGI,[6],> 100 µM
same,TGI,[10],> 100 µM
same,TGI,[11],> 100 µM
same,TGI,[12],55.3 µM
same,TGI,[13],> 100 µM
same,TGI,[14],> 100 µM
same,TGI,[15],> 100 µM
same,TGI,[58],36.3 µM
same,TGI,[17],60.8 µM
same,TGI,[18],> 100 µM
same,TGI,[21],> 100 µM
same,TGI,[22],> 100 µM
same,TGI,[23],> 100 µM
same,TGI,[24],> 100 µM
same,TGI,[26],68.1 µM
same,TGI,[27],> 100 µM
same,TGI,[28],> 100 µM
same,TGI,[29],65 µM
same,TGI,[30],37.7 µM
same,TGI,[32],> 100 µM
same,TGI,[33],> 100 µM
same,TGI,[34],> 100 µM
same,TGI,[35],> 100 µM
same,TGI,[36],> 100 µM
same,TGI,[37],> 100 µM
same,TGI,[39],> 100 µM
same,TGI,[40],30.3 µM
same,TGI,[42],> 100 µM
same,TGI,[44],67.8 µM
same,TGI,[45],94.8 µM
same,TGI,[46],> 100 µM
same,TGI,[47],78.9 µM
same,TGI,[48],27.9 µM
same,TGI,[49],> 100 µM
same,TGI,[50],85.1 µM
same,TGI,[53],> 100 µM
same,TGI,[54],41.8 µM
same,TGI,[57],62.4 µM
